From the CheMixHub viscosity set
“And” between values parts separate entries of the source, which are not always exact repeats. Equal values may be shown once. ± gives the uncertainty stated by the source.

## C1CCC2=[NH+]CCCN2CC1.c1c[n-]cn1
298.15 K, 100 kPa
  viscosity: 34.34 ± 1.5 mPa·s

## C1CCCCCC1
303.15 K, 101 kPa
  viscosity: 1.239 ± 0.0075 mPa·s

## CC(=O)O
293.15 K, 101.32 kPa
  viscosity: 1.226 ± 0.014 mPa·s
293.15 K, 101.33 kPa
  viscosity: 1.226 ± 0.014 mPa·s and 1.222 ± 0.059 mPa·s
298.15 K, 101.3 kPa
  viscosity: 1.155 ± 0.03 mPa·s and 1.27 ± 0.03 mPa·s
303.15 K, 100 kPa
  viscosity: 0.982 mPa·s
303.15 K, 101.33 kPa
  viscosity: 1.346 ± 0.0094 mPa·s and 0.98 ± 0.05 mPa·s
308.15 K, 101.3 kPa
  viscosity: 1.08 ± 0.03 mPa·s
308.15 K, 101.32 kPa
  viscosity: 0.9795 ± 0.012 mPa·s
313.15 K, 101.3 kPa
  viscosity: 0.931 ± 0.025 mPa·s
318.15 K, 101.32 kPa
  viscosity: 0.8536 ± 0.01 mPa·s
323.15 K, 101.3 kPa
  viscosity: 0.823 ± 0.022 mPa·s and 0.883 ± 0.022 mPa·s

## CC1CCCC(C)C1=O (stereo unspecified)
303.15 K, 100 kPa
  viscosity: 3.709 ± 0.15 mPa·s
308.15 K, 100 kPa
  viscosity: 3.237 ± 0.13 mPa·s
313.15 K, 100 kPa
  viscosity: 2.765 ± 0.11 mPa·s

## CCC(=O)N(CC)CC
298.16 K, 101 kPa
  viscosity: 1.241 ± 0.011 mPa·s

## CCCCCCCC[n+]1ccccc1.F[B-](F)(F)F
293.15 K, 101.3 kPa
  viscosity: 319.7 ± 20 mPa·s
298.15 K, 101.3 kPa
  viscosity: 233.5 ± 12 mPa·s
303.15 K, 101.3 kPa
  viscosity: 171.9 ± 7.4 mPa·s
308.15 K, 101.3 kPa
  viscosity: 134.8 ± 4.7 mPa·s
313.15 K, 101.3 kPa
  viscosity: 105.7 ± 2.9 mPa·s
318.15 K, 101.3 kPa
  viscosity: 81.56 ± 1.6 mPa·s
323.15 K, 101.3 kPa
  viscosity: 64.89 ± 0.97 mPa·s

## CCC[N+](C)(C)C.O=S(=O)([N-]S(=O)(=O)C(F)(F)F)C(F)(F)F
293.15 K, 101.3 kPa
  viscosity: 102 ± 20 mPa·s
298.15 K, 101.3 kPa
  viscosity: 79.4 ± 16 mPa·s
303.15 K, 101.3 kPa
  viscosity: 63.2 ± 13 mPa·s
308.15 K, 101.3 kPa
  viscosity: 51.1 ± 10 mPa·s
313.15 K, 101.3 kPa
  viscosity: 42 ± 8.4 mPa·s
318.15 K, 101.3 kPa
  viscosity: 35 ± 7 mPa·s
323.15 K, 101.3 kPa
  viscosity: 29.5 ± 5.9 mPa·s

## CCCn1cc[n+](C)c1C.F[B-](F)(F)F
298.15 K, 101 kPa
  viscosity: 377.3 ± 52 mPa·s
303.15 K, 101 kPa
  viscosity: 271.9 ± 31 mPa·s
308.15 K, 101 kPa
  viscosity: 202 ± 19 mPa·s
313.15 K, 101 kPa
  viscosity: 152.2 ± 12 mPa·s
318.15 K, 101 kPa
  viscosity: 117.4 ± 7 mPa·s
323.15 K, 101 kPa
  viscosity: 92.29 ± 4.1 mPa·s

## CCOC=O
293.15 K, 101 kPa
  viscosity: 0.418 ± 0.011 mPa·s
298.15 K, 100 kPa
  viscosity: 0.38 ± 0.009 mPa·s and 0.38 ± 0.01 mPa·s
298.15 K, 101 kPa
  viscosity: 0.3972 mPa·s
298.15 K, 101.33 kPa
  viscosity: 0.379 ± 0.004 mPa·s
303.15 K, 100 kPa
  viscosity: 0.36 ± 0.009 mPa·s and 0.36 ± 0.01 mPa·s
303.15 K, 101 kPa
  viscosity: 0.378 ± 0.01 mPa·s
308.15 K, 101 kPa
  viscosity: 0.361 ± 0.01 mPa·s
313.15 K, 100 kPa
  viscosity: 0.328 ± 0.008 mPa·s
318.15 K, 100 kPa
  viscosity: 0.31 ± 0.008 mPa·s and 0.31 ± 0.01 mPa·s
323.15 K, 100 kPa
  viscosity: 0.29 ± 0.007 mPa·s and 0.29 ± 0.01 mPa·s
323.15 K, 101 kPa
  viscosity: 0.308 mPa·s

## C[Si]1(C)O[Si](C)(C)O[Si](C)(C)O[Si](C)(C)O1
298.15 K, 101 kPa
  viscosity: 2.19 ± 0.057 mPa·s
298.15 K, 103 kPa
  viscosity: 2.068 ± 0.044 mPa·s
308.15 K, 101 kPa
  viscosity: 1.806 ± 0.048 mPa·s
308.15 K, 103 kPa
  viscosity: 1.71 ± 0.043 mPa·s
318.15 K, 101 kPa
  viscosity: 1.514 ± 0.04 mPa·s
318.15 K, 103 kPa
  viscosity: 1.435 ± 0.042 mPa·s

## C[n+]1ccn(CCO)c1.O=S(=O)([O-])C(F)(F)C(F)(F)C(F)(F)C(F)(F)F
298.15 K, 101 kPa
  viscosity: 831.6 ± 45 mPa·s
308.15 K, 101 kPa
  viscosity: 411.4 ± 20 mPa·s
318.15 K, 101 kPa
  viscosity: 224 ± 10 mPa·s
